The target of assay [1] is Tumour suppressor p53/oncoprotein Mdm2 (Homo sapiens, UniProt P04637+Q00987). Put plainly: Binding affinity to human MDM2/p53. It is filed as protein assay.
Assay [2] addresses T1, E3 ubiquitin-protein ligase Mdm2 (Homo sapiens, UniProt Q00987). Kind of assay: Antagonist activity at human GST-tagged MDM2 assessed as inhibition of binding to full length p53.
The target of assay [3] is T1, E3 ubiquitin-protein ligase Mdm2. Kind of assay: Antagonist activity at human MDM2.

Where a SMILES comes first, the peptide text is derived from it. [ ]: non-standard residue; d: D form. Trp(6-Cl) = N[C@@H](Cc1c[nH]c2cc(Cl)ccc12)C(=O)O; Pmp = N[C@@H](Cc1ccc(CP(=O)(O)O)cc1)C(=O)O; Ac3c = NC1(C(=O)O)CC1; Aib = CC(C)(N)C(=O)O

T1 sequence (Q00987 whole entry): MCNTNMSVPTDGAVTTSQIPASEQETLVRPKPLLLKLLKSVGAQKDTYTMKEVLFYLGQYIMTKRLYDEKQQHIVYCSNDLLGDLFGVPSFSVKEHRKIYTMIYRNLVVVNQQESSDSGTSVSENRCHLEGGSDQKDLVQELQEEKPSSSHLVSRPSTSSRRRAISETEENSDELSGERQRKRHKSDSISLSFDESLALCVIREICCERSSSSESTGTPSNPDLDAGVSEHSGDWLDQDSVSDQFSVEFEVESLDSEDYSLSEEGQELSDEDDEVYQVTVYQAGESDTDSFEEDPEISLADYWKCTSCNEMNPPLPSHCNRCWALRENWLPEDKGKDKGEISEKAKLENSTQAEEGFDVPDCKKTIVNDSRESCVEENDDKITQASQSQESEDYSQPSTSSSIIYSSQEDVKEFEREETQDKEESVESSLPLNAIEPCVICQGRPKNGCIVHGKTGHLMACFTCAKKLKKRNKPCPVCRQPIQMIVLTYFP
Sequence of Tumour suppressor p53/oncoprotein Mdm2 (P04637 whole entry): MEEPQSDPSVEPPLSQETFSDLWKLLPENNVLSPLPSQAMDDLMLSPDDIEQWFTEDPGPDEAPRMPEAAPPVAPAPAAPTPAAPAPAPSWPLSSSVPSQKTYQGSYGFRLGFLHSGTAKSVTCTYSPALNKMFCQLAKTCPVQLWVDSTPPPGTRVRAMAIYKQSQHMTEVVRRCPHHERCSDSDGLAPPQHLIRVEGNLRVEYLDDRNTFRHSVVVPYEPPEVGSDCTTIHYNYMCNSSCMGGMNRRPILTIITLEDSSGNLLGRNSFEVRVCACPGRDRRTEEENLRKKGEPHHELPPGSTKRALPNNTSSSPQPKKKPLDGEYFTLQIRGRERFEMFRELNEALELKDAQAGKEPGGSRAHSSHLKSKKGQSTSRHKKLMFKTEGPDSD
Sequence of Tumour suppressor p53/oncoprotein Mdm2 (Q00987 whole entry): as the sequence (Q00987 whole entry) above

Take `CCOc1cc(C(C)(C)C)ccc1C1=N[C@@H](c2ccc(Cl)cc2)[C@@H](c2ccc(Cl)cc2)N1C(=O)N1CCN(CCCS(C)(=O)=O)CC1`: binding in assay [1] was characterised by a dissociation constant (Kd) of 10.7 nM.
`CSCC[C@H](NC(=O)[C@H](Cc1ccccc1)NC(C)=O)C(=O)NC(C)(C)C(=O)N[C@@H](Cc1ccc(CP(=O)(O)O)cc1)C(=O)N[C@@H](Cc1c[nH]c2cc(Cl)ccc12)C(=O)N[C@@H](CCC(=O)O)C(=O)NC1(C(=O)N[C@@H](CC(C)C)C(N)=O)CC1` (Ac-FM[Aib][Pmp][Trp(6-Cl)]E[Ac3c]L-NH2): in assay [2], the IC50 (commonly the concentration that inhibits the measured activity by half) was found to be 5 nM.
As to `CSCC[C@H](NC(=O)[C@H](Cc1ccccc1)NC(=O)[C@H](CCCN=C(N)N)NC(=O)[C@@H]1CCCN1C(=O)[C@H](CCSC)NC(C)=O)C(=O)N[C@@H](CC(=O)O)C(=O)N[C@@H](Cc1ccc(O)cc1)C(=O)N[C@@H](Cc1c[nH]c2ccccc12)C(=O)N[C@@H](CCC(=O)O)C(=O)NCC(=O)N[C@@H](CC(C)C)C(=O)N[C@@H](CC(N)=O)C(N)=O` (Ac-MPRFMDYWEGLN-NH2), half-maximal inhibition in assay [3] (IC50) required 313 nM.
Turning to `CSCC[C@H](NC(=O)[C@@H](N)Cc1ccccc1)C(=O)N[C@@H](CC(=O)O)C(=O)N[C@@H](Cc1ccc(O)cc1)C(=O)N[C@@H](Cc1c[nH]c2ccccc12)C(=O)N[C@@H](CCC(=O)O)C(=O)NCC(=O)N[C@@H](CC(C)C)C(N)=O` (H-FMDYWEGL-NH2), the IC50 in assay [3] is 8900 nM.

Values taken from ChEMBL document CHEMBL2380265, “Inhibitors of the p53/hdm2 protein-protein interaction-path to the clinic” (Bioorg Med Chem Lett, 2013).
